Assay results: patent US10030016B2 (Sunesis Pharmaceuticals, Inc., priority 2009, dated 2018)
Counter-ions that a name gives are not always drawn. Like-named read-outs stand apart in the source and are kept apart here.

Tests used:
PDK1 = PDK1 (Homo sapiens (Human), UniProt O15530); assay: PDK1 kinase assay (coupled PDK1/AKT/FAM-crosstide assay, IMAP fluorescence polarization); assay type: biochemical
In short: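 GST-tagged PDK1 (aa 51-359, 0.75 nM) was coupled to unphosphorylated GST-AKT2 140-467-PIFtide (10 nM) and 100 nM FAM-crosstide at 40 μM ATP, in Tris pH 7.2 buffer, for 30 min at 25 °C. Crosstide phosphorylation was read by IMAP fluorescence polarization (ΔmP) and fitted with a 4-parameter curve.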

[1] = system: phospho-akt (Thr308) in PC-3 cells; assay: Inhibition of phospho-akt (Thr308) in PC-3 cells, MSD phospho-akt 308 ELISA kit; assay type: cell-based; settings: Homo sapiens, 2 hours, no serum, read-out: EC50
In short: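 Electrochemiluminescent MSD ELISA of Thr308-phosphorylated Akt after a 2 h serum-free compound exposure of PC-3 cells (15,000/well, plated overnight). Controls: DMSO (high), 5 μM wortmannin (low). Lysate binding overnight at 4 °C; detection antibody 1 h at room temperature.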

[2] = inhibition of phospo-PDK1 in vitro
[3] = inhibition of P308 Akt in PC-3 cells, MSD
[4] = inhibition of P308 Akt in PC-3 cells using MSD

Sequence of PDK1 (O15530 51-359): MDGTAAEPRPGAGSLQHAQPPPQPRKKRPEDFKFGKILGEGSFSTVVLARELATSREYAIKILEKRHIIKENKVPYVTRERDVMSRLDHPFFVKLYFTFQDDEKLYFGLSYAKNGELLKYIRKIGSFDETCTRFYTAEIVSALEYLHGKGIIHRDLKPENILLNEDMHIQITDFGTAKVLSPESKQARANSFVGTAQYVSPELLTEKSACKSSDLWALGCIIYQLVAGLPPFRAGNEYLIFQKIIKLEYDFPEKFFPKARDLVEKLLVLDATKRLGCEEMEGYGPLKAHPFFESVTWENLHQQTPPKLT

IC50 (PDK1; [2]) [nM] | EC50 [1, 3] [nM] | IC50 (PDK1; inhibition of PDK1 in vitro) [nM] | EC50 [1, 4] [nM] | SMILES
< 100 | < 1000 |  |  | O=C1Nc2cc(/C=C/CNc3ncccc3C(=O)NCc3ccc(F)c(F)c3)ccc2/C1=C/c1cnc[nH]1 [Example 15.1, 2-((E)-3-((Z)-3-((1H-imidazol-5-yl)methylene)-2-oxoindolin-6-yl)allylamino)-N-(3,4-difluorobenzyl)nicotinamide]
 |  | < 100 | 1000 to 10000 | Nc1n[nH]c2ncc(-c3ccc(CNc4ncc(C(F)(F)F)cc4C(=O)NC4CCC4)cc3)cc12 [Example 299, 2-(4-(3-amino-1H-pyrazolo [3,4-b]pyridin-5-yl)benzylamino)-N-cyclobutyl-5-(trifluoromethyl)nicotinamide]
< 100 | > 10000 |  |  | Nc1ncnc2ccc(-c3csc(CNc4ncccc4C(=O)NCc4ccc(F)c(F)c4)n3)cc12 [Ex. 6.7, 2-({[4-(4-aminoquinazolin-6-yl)-1,3-thiazol-2-yl]methyl}amino)-N-(3,4-difluoro-benzyl) pyridine-3-carboxamide]
100 to 1000 | < 1000 |  |  | C[C@H](NC(=O)c1cccnc1N[C@@H](COc1ccc2[nH]c(=O)[nH]c2c1)c1cccc(Cl)c1)c1ccc(F)c(F)c1 [Example 16.9, 2-((R)-1-(3-chlorophenyl)-2-(2-oxo-2,3-dihydro-1H-benzo[d]imidazol-5-yloxy)ethylamino)-N-((S)-1-(3,4-difluorophenyl)ethyl)nicotinamide]
< 100 | 1000 to 10000 |  |  | Nc1ncnc2ccc(-c3ccc(CNc4ncc(S(N)(=O)=O)cc4C(=O)NCc4ccc(F)c(F)c4)s3)cc12 [Example 8.7.2, 2-({[5-(4-aminoquinazolin-6-yl)thiophen-2-yl]methyl}amino)-N-(3,4-difluorobenzyl)-5-sulfamoylpyridine-3-carboxamide]
< 100 | 1000 to 10000 |  |  | Cc1cnc(/C=C2\C(=O)Nc3cc(/C=C/CNc4ncccc4C(=O)NCc4ccc(F)c(F)c4)ccc32)[nH]1 [Example 15.9, N-(3,4-Difluoro-benzyl)-2-((E)-3-{3-[1-(5-methyl-1H-imidazol-2-yl)-meth-(Z)-ylidene]-2-oxo-2,3-dihydro-1H-indol-6-yl}-allylamino)-nicotinamide]
 |  | < 100 | < 1000 | C[C@H](NC(=O)c1cc(C#N)cnc1NCc1ccc(-c2cnc(N)c(C(N)=O)n2)cc1)c1ccc(F)cc1 [Example 217, (S)-3-amino-6-(4-((5-cyano-3-(1-(4-fluorophenyl)ethylcarbamoyl)pyridin-2-ylamino)methyl)phenyl) pyrazine-2-carboxamide]
> 5000 | > 10000 |  |  | C[C@H](NC(=O)c1cccnc1NCc1ccc(-c2cn(C)c(=O)c3ccccc23)s1)c1ccc(F)cc1 [Example 2.10, (S)-N-(1-(4-fluorophenyl)ethyl)-2-(((5-(2-methyl-1-oxo-1,2-di-hydroisoquinolin-4-yl)thiophen-2-yl)methyl)amino)nicotinamide]
100 to 1000 | 1000 to 10000 |  |  | Nc1ncnc2ccc(-c3ccc(CNc4nc5c(cc4C(=O)NCc4ccc(F)c(F)c4)CCC5)s3)cc12 [Ex. 8.15.1, 2-({[5-(4-aminoquinazolin-6-yl)thiophen-2-yl]methyl}amino)-N-(3,4-difluorobenzyl)-6,7-dihydro-5H-cyclopenta [b]pyridine-3-carboxamide]
 |  | < 100 | < 1000 | C[C@H](NC(=O)c1cc(C#N)cnc1NCc1ccc(-c2cnc(N)c(CCCN)n2)cc1)c1ccc(F)cc1 [Example 70, 2-{4-[5-Amino-6-(3-amino-propyl)-pyrazin-2-yl]-benzylamino}-5-cyano-N-[(S)-1-(4-fluoro-phenyl)-ethyl]-nicotinamide]
1000 to 5000 | > 10000 |  |  | C[C@H](NC(=O)c1c(NCc2ccc(-c3ccc4ncnc(N)c4c3)s2)ncc(Br)c1N)c1ccc(F)c(F)c1 [Example 3.87]
 |  | 1000 to 5000 | > 10000 | COCCCNc1cnc(-c2ccc(CNc3ncc(C#N)cc3C(=O)N[C@@H](C)c3ccc(F)cc3)cc2)cn1 [Example 228, 5-Cyano-N-[(S)-1-(4-fluoro-phenyl)-ethyl]-2-{4-[5-(3-methoxy-propylamino)-pyrazin-2-yl]-benzylamino}-nicotinamide]
< 100 | < 1000 |  |  | C#Cc1cnc(NCc2ccc(-c3ccc4ncnc(N)c4c3)s2)c(C(=O)NCc2ccc(F)c(F)c2)c1 [Ex. 8.10, 2-(((5-(4-aminoquinazolin-6-yl)thiophen-2-yl)methyl)amino)-N-(3,4-difluorobenzyl)-5-ethynylnicotinamide]
> 5000 | > 10000 |  |  | CC(C)Oc1cc(CNc2ncccc2C(=O)Nc2ccc(C(F)(F)F)cc2)cc(-c2c[nH]c3ncc(C(=O)NC4CC4)cc23)c1 [Example 4.1.2]
 |  | < 100 | < 1000 | C[C@H](NC(=O)c1cc(C#N)cnc1NCc1ccc(-c2cnc(N)c(OCCN)n2)cc1)c1ccc(F)cc1 [Example 165, 2-{4-[5-Amino-6-(2-amino-ethoxy)-pyrazin-2-yl]-benzylamino}-5-cyano-N-[(S)-1-(4-fluoro-phenyl)-ethyl]-nicotinamide]
> 5000 | 1000 to 10000 |  |  | CCC(C)NS(=O)(=O)c1cnc(NCc2ccc(-c3ccc4ncnc(N)c4c3)s2)c(C(=O)NC)c1 (centres unmarked) [Example 8.6.17, 2-(((5-(4-aminoquinazolin-6-yl)thiophen-2-yl)methyl)amino)-5-(N-sec-butylsulfamoyl)-N-methylnicotinamide]
 |  | 100 to 1000 | 1000 to 10000 | C#CCNC(=O)c1cc(C(F)(F)F)cnc1NCc1ccc(-c2cnc3[nH]nc(N)c3c2)cc1 [Example 271, 2-(4-(3-amino-1H-pyrazolo [3,4-b]pyridin-5-yl)benzylamino)-N-(prop-2-ynyl)-5-(trifluoromethyl) nicotinamide]
100 to 1000 | 1000 to 10000 |  |  | Nc1ncnc2ccc(-c3ccc(CNc4ncccc4C(=O)Nc4ccc(F)c(F)c4)s3)cc12 [Example 3.24, 2-({[5-(4-aminoquinazolin-6-yl)thiophen-2-yl]methyl}amino)-N-(3,4-difluorophenyl)pyridine-3-carboxamide (TFA salt)]
 |  | < 100 | < 1000 | C[C@H](NC(=O)c1nc(C#N)cnc1NCc1ccc(-c2cnc3[nH]ncc3c2)cc1)c1ccc(F)cc1 [Example 389, 6-Cyano-3-[4-(1H-pyrazolo [3,4-b]pyridin-5-yl)-benzylamino]-pyrazine-2-carboxylic acid [(S)-1-(4-fluoro-phenyl)-ethyl]-amide]
> 5000 | > 10000 |  |  | Nc1ncnc2ccc(-c3ccc(CNc4nccnc4C(=O)Nc4ccc(F)c(F)c4)s3)cc12 [Example 3.72, 3-({[5-(4-aminoquinazolin-6-yl)thiophen-2-yl]methyl}amino)-N-(3,4-difluorophenyl)pyrazine-2-carboxamide (TFA salt)]
 |  | < 100 | < 1000 | C[C@H](NC(=O)c1cc(C#N)cnc1NCc1ccc(-c2cnc(N)c(C(=O)NCCN(C)C)n2)cc1)c1ccc(F)cc1 [Example 212]
 |  | < 100 | < 1000 | C[C@H](NC(=O)c1nc(C#N)cnc1NCc1ccc(-c2cnc(N)c(CC3CCNC3)n2)cc1)c1ccc(F)c(F)c1 (stereo partly drawn) [Example 187, 3-[4-(5-Amino-6-pyrrolidin-3-ylmethyl-pyrazin-2-yl)-benzylamino]-6-cyano-pyrazine-2-carboxylic acid [(S)-1-(3,4-difluoro-phenyl)-ethyl]-amide]
 |  | < 100 | 1000 to 10000 | CC(C)(O)Cn1cc(-c2ccc(CNc3ncc(C(F)(F)F)cc3C(=O)Nc3ccc(F)cc3)cc2)c2c(N)ncnc21 [Example 405, 2-(4-(4-amino-7-(2-hydroxy-2-methylpropyl)-7H-pyrrolo[2,3-d]pyrimidin-5-yl)benzylamino)-N-(4-fluorophenyl)-5-(trifluoromethyl)nicotinamide]
 |  | < 100 | < 1000 | C[C@H](NC(=O)c1nc(C#N)cnc1NCc1ccc(-c2cn(CCCN)c3ncnc(N)c23)cc1)c1ccc(F)c(F)c1 [Example 318, (S)-3-(4-(4-amino-7-(3-aminopropyl)-7H-pyrrolo[2,3-d]pyrimidin-5-yl)benzylamino)-6-cyano-N-(1-(3,4-difluoro-phenyl)ethyl)pyrazine-2-carboxamide]
> 5000 | > 10000 |  |  | CCOc1cnc(NCc2ccc(-c3ccc4ncnc(N)c4c3)s2)c(C(=O)NCc2ccc(F)c(F)c2)c1 [Example 8.1.3, 2-({[5-(4-aminoquinazolin-6-yl)thiophen-2-yl]methyl}amino)-N-(3,4-difluorobenzyl)-5-ethoxypyridine-3-carboxamide]
 |  | < 100 | 1000 to 10000 | Nc1ncnn2c(-c3ccc(CNc4ncc(C(F)(F)F)cc4C(=O)Nc4ccc(F)cc4)cc3)ccc12 [Example 180, 2-[4-(4-Amino-pyrrolo [2,1-f][1,2,4]triazin-7-yl)-benzylamino]-N-(4-fluoro-phenyl)-5-trifluoromethyl-nicotinamide]
 |  | 100 to 1000 | 1000 to 10000 | C[C@@H](NC(=O)c1nc(C#N)cnc1NCc1ccc(-c2cnc3[nH]nc(N)c3c2)cc1)c1ccc(F)c(F)c1 [Example 417, (R)-3-(4-(3-amino-1H-pyrazolo[3,4-b]pyridin-5-yl)benzylamino)-6-cyano-N-(1-(3,4-difluorophenyl)ethyl) pyrazine-2-carboxamide]
 |  | < 100 | < 1000 | C[C@H](NC(=O)c1cc(C#N)cnc1N[C@H](C)c1ccc(-c2cnc3[nH]nc(N)c3c2)cc1)c1ccc(F)cc1 [Example 423, 2-{(R)-1-[4-(3-Amino-1H-pyrazolo[3,4-b]pyridin-5-yl)-phenyl]-ethylamino}-5-cyano-N-[(S)-1-(4-fluoro-phenyl)-ethyl]-nicotinamide]
